From patent US9707126B2, “Systems and methods for corneal cross-linking with pulsed light” (Avedro, Inc., priority 2009, dated 2017)
“Also recorded” adds a separate entry of the source.

Tests used:
porcine corneal flaps = assay: Fluorescence of papain-digested corneal flaps treated with RFH2 solutions (Example 1)
Protocol: RFH2 was prepared by irradiation of Riboflavin solutions (with and without EDTA, 1% EDTA, 0.1% Riboflavin) and saturated with argon (to displace oxygen) in a shallow sealed quartz cuvette. Then, in the absence of additional UV light, porcine corneal flaps were immediately placed in those solutions. After 1-2 min this procedure was repeated with a fresh solution containing RFH2 several times. Corneal flaps then were washed with distilled water, digested with papain buffer, and their fluorescence was measured.

[1] = Absorbance of Riboflavin before and after UVA irradiation (FIG. 3); type: physicochemical; settings: 0.2 mm light path
Protocol: Referring now to FIG. 3, a graph illustrating absorbance for 0.2 mm light path of an initial sample of Riboflavin versus absorbance for 0.2 mm light path of reduced Riboflavin RfH2 after being irradiated for 3 minutes at an irradiance of 30 mW/cm^2. At a wavelength of 445 nm, the absorbance of the initial sample is about 0.543, while the absorbance of the irradiated sample is about 0.340.

porcine cornea [2] = assay: Cross-linking measured by fluorescence of digested corneal flaps at 450 nm (Example 5); settings: 0.1% Riboflavin, humid oxygenated environment with pulsed UV light 30 mW/cm^2, 1.5 seconds on/3 seconds off, 9 minutes
Protocol: Pig eyes from an abattoir (SiouxPreme, Sioux City, Iowa) were rinsed in saline. Eyes were cleaned and the epithelium was removed. Eyes were placed on a stand in the middle of a large beaker filled part way with water with a tube bubbling compressed oxygen into the water. The oxygen was turned on at certain times during the experiment to create a humid oxygenated environment for the eye. Eyes were soaked for 20 minutes with 0.1% Riboflavin, dH2O solution in an incubator set at 37° C. by using a rubber ring to hold the solution on top. Corneas were pan-corneally irradiated with a top hat beam (3% root mean square) for a determined amount of time and irradiance (3 minutes CW at 30 mW/cm^2 with one drop of solution added every 30 seconds, or 30 minutes CW at 3 mW/cm^2 with one drop of solution added every minute, or 9 minutes for pulsed light—1.5 seconds on/3 seconds off—using a shutter system (Lambda SC Smart Shutter, Sutter Instrument, Novato, Calif.) at 30 mW/cm^2 with one drop of solution added every minute) with a 365-nm light source (UV LED NCSU033B[T]; Nichia Co., Tokushima, Japan). The irradiance was measured with a power sensor (model PD-300-UV; Ophir, Inc., Jerusalem, Israel) at the corneal surface. […]
FIG. 7A illustrates a graph of the amount of cross-linking measured by fluorescence of the digested corneal flaps at 450 nm. […]

porcine cornea [3] = assay: Fluorescence of digested 200 μm corneal flaps, continuous wave versus pulsed illumination (Example 4); settings: for fluorescence at 455 nm: 0.1% Riboflavin, 200 μm flap
Protocol: In another corroborating experiment porcine whole globes (SiouxPreme Packing Co., Sioux City, Iowa; shipped in saline solution packed in ice) were warmed to room temperature (25 C). The corneas were then de-epithelialized with a dulled scalpel blade and 0.1, Riboflavin solution in 0.9% saline was applied to the top of each cornea during 20 minutes before cross-linking in an incubator. Corneas were pan-corneally irradiated with a top hat beam (3% root mean square) for a determined amount of time with 365-nm light source (UV LED NCSU033B[T]; Nichia Co., Tokushima, Japan) at the chosen irradiance of 30 mW/cm^2 with either continuous wave illumination or pulsed illumination 3 seconds on/3 Seconds off. Corneal flaps (200 μm thick) were excised from the eyes with aid of Intralase femtosecond laser (Abbott Medical Optics, Santa Ana, Calif.). The average thickness of the corneal flaps was calculated as a difference between the measurements before and after the excision from the eyes with an ultrasonic Pachymeter (DGH Technology, Exton, Pa.).
The flaps were washed with distilled water until Riboflavin in the washing waters was not detectable by absorbance measurement at 455 nm (Thermo Scientific Evolution 300/600 UV-Vis Spectrophotometer, Thermo Fisher Scientific, Waltham, Mass.). […] Papain digests were centrifuged for 30 seconds at 2200×G (Mini centrifuge 05-090-100, Fisher Scientific), diluted 3 times with 1×PBS solution and fluorescence of the solutions was measured with excitation of λex=360 nm in a QM-40 Spectrofluorometer (Photon Technology Int., London, Ontario, Canada).
The fluorescence of the papain buffer was taken into account by measuring fluorescence in the absence of tissue and subtracting this value from the fluorescence of the samples. The results seen below corroborate that the amount of fluorescence seen which is directly related to the amount of cross-linking is greater for the pulsed vs. continuous wave illumination in nearly the same proportion as the biomechanical measurements taken of the same flaps.

porcine cornea [4] = assay: Collagen linked fluorescence in cross-linked corneal flaps at depths of 100 μm and 200 μm (Example 2)
Protocol: Porcine whole globes (SiouxPreme Packing Co., Sioux City, Iowa; shipped in saline solution packed in ice) were warmed to room temperature (25° C.). The corneas were then de-epithelialized with a dulled scalpel blade and 0.1, 0.25, or 0.5% riboflavin solution in 0.9% saline was applied to the top of each cornea during 20 minutes before cross-linking Corneas were pan-corneally irradiated with a top hat beam (3% root mean square) for a determined amount of time with 365-nm light source (UV LED NCSU033B[T]; Nichia Co., Tokushima, Japan) at the chosen irradiance (3 or 30 mW/cm^2) which was measured with a power sensor (model PD-300-UV; Ophir, Inc., Jerusalem, Israel) at the corneal surface.
Corneal flaps (each 100 μm thick, one after another) were excised from the eyes with aid of Intralase femtosecond laser (Abbott Medical Optics, Santa Ana, Calif.). The average thickness of the corneal flaps was calculated as a difference between the measurements before and after the excision from the eyes with an ultrasonic Pachymeter (DGH Technology, Exton, Pa.). The flaps were washed with distilled water until Riboflavin in the washing waters was not detectable by absorbance measurement at 455 nm (Thermo Scientific Evolution 300/600 UV-Vis Spectrophotometer, Thermo Fisher Scientific, Waltham, Mass.). […]

porcine cornea [5] = assay: Force versus displacement of cross-linked corneal flaps, biaxial materials tester (Example 3)
Protocol: Upon arrival, porcine eyes have excess muscle tissue that was removed and placed in saline in the incubator (set to 37° C.) for 30 minutes. […] Eyes were removed from solution and physiological IOP was applied. Eyes were then placed under a UVA source and shutter system and irradiated according to the indicated protocol as shown in FIGS. 5A-5C. Riboflavin drops were applied every 1.5 minutes during UVA application. After being irradiated, the corneal thickness was measured with a pachymeter. The sample was then placed under the femto second laser and a ˜200 μm flap was cut. The flap was positioned in a biaxial materials tester (CS-BIO TESTER 5000, CellScale, Waterloo, ON Canada) and stretched until failure. The sample was then rinsed with distilled water and frozen for future papain digestion and fluorescence analysis.

absorbance at 445 nm ([1]; after irradiation for 3 minutes at 30 mW/cm^2) | absorbance at 445 nm ([1]; initial sample) | biomechanical stiffness (FIG. 5C) (porcine cornea [5]; 0.1% Riboflavin, 30 mW/cm^2 pulsed 3 seconds on/4.5 seconds off and 3 seconds on/3 seconds off) | biomechanical stiffness (FIG. 7B) (porcine cornea [5]; 3 mW/cm^2 and 30 mW/cm^2 continuous wave illumination, versus pulsed with oxygen) | biomechanical stiffness (FIG. 5C) (porcine cornea [5]; 30 mW/cm^2 pulsed, 3 seconds on, 1.5, 0.75 and 0.25 seconds off (samples 5, 6, 7)) | biomechanical stiffness (FIG. 5C) (porcine cornea [5]; sample 1: 0.1% Riboflavin, 3 mW/cm^2 continuous wave) | biomechanical stiffness (FIG. 5A) (porcine cornea [5]; sample 2: 0.25% Riboflavin, 3 mW/cm^2 continuous wave vs. sample 3 at 30 mW/cm^2, 5.4 J/cm^2) | biomechanical stiffness (FIG. 7B) (porcine cornea [5]; sample 3: 30 mW/cm^2 pulsed light with oxygen, 3 seconds on/3 seconds off) | biomechanical stiffness (FIG. 5A) (porcine cornea [5]; sample 8: 0.1% Riboflavin, 30 mW/cm^2 pulsed 3 seconds on/3 seconds off) | Compound | fluorescence of corneal samples (porcine corneal flaps; Riboflavin solution irradiated with a reducing agent, EDTA (1% EDTA, 0.1% Riboflavin)) | fluorescence of corneal samples versus samples washed with unexposed Riboflavin (porcine corneal flaps; preliminary UVA-exposed Riboflavin solutions, no further UV light) | amount of cross-linking by fluorescence of digested flaps at 450 nm (FIG. 7A) (porcine cornea [2]) | fluorescence at 455 nm (porcine cornea [3]; 30 mW/cm^2 continuous illumination) | fluorescence at 455 nm (porcine cornea [3]; 30 mW/cm^2 pulsed light 3 seconds on/3 seconds off) | fluorescence at 455 nm, continuous less than pulsed (porcine cornea [3]; 30 mW/cm^2 continuous versus pulsed 3 seconds on/3 seconds off) | corneal fluorescence at first 100 μm versus next 100 μm (porcine cornea [4]; 0.1, 0.25 or 0.5% Riboflavin, 3 or 30 mW/cm^2, dose 5.4 J/cm^2) | corneal fluorescence relative to non-cross-linked samples (porcine cornea [4]; first 100 μm, 0.1% Riboflavin solution, 3 mW/cm^2, dose 5.4 J/cm^2) | biomechanical stiffness (FIG. 5C) (porcine cornea [5]; 0.25% Riboflavin, 3 mW/cm^2 continuous wave) | biomechanical stiffness (FIG. 5B) (porcine cornea [5]; sample 2: 0.1% Riboflavin, 30 mW/cm^2 pulsed, 4.5 second exposure cycles, 3 seconds off) | biomechanical stiffness (FIG. 5A) (porcine cornea [5]; sample 5: 30 mW/cm^2 continuous wave, total 35.1 J/cm^2 dose)
about 0.340 |  |  |  |  |  |  |  |  | Cc1cc2c(cc1C)N(C[C@H](O)[C@H](O)[C@H](O)CO)c1[nH]c(=O)[nH]c(=O)c1N2 [RfH2, Leuco-Deuteroflavin] | highest | higher |  |  |  |  |  |  |  |  | 
 | about 0.543 | slightly lower biomechanical stiffness | lower biomechanical stiffness | in descending order | highest biomechanical stiffness | dissimilar biomechanical stiffness | highest biomechanical stiffness | higher than both the samples 6 and 7 | Cc1cc2nc3c(=O)[nH]c(=O)nc-3n(C[C@H](O)[C@H](O)[C@H](O)CO)c2cc1C [Riboflavin] |  |  | greatly increases the amount of cross-linking | about 12000 counts/s | about 20,000 counts/s | about 40% | greater at first 100 μm than at the next 100 μm | highest corneal fluorescence | lowest biomechanical stiffness out of samples 1 and 3-7 | slightly lower biomechanical stiffness than samples 3 or 1 | higher than that for samples 6, 7, 3, 4, and 1; also recorded: lower than that for sample 2
